Experimental data from patent US20190167676A1, “METHODS FOR IMPROVING RESISTANCE TO SKELETAL MUSCLE FATIGUE” (Cytokinetics, Inc., priority 2012, published 2019).

How the values were obtained:
[1] = system: rat plantarflexor muscles; test: Rat plantar flexor force and power in situ; assay type: in vivo
From the text: Rats were placed under anesthesia using isoflurane and the sciatic nerve of the experimental leg exposed. The rat was then placed on the platform of an Aurora in-situ muscle analysis rig (806C), maintained at body temperature via a circulating water system. The knee was immobilized in a clamp between two sharpened screws and the foot attached securely to the footplate of a force transducer (Aurora Scientific, Ontario, Canada) using laboratory tape. The muscle was stimulated directly via the sciatic nerve. For isolation of the nerve, a 1 cm incision was made at the upper thigh and the overlying muscle was dissected to expose an approximate 5 mm stretch of the sciatic nerve. This was then dissected free of surrounding connective tissue and a pair of stainless steel needle electrodes (0.10 mm) were hooked around the exposed nerve. The peroneal branch was severed to remove innervation to the plantar-extensor muscle groups. Muscle contractile properties were assessed by applying an electrical current to the nerve and recording the force generated by the muscle via a servomotor. Isokinetic contractile properties were assessed as force generated during a pre-programmed movement of the footplate. Footplate movements were 0.7 radians in size ([…]).
Solutions of Compound A (50% PEG300/10% EtOH/40% cavitron formulation) were administered via a femoral vein catheter as a single slow bolus over a 2 min period, with a maximal dosage volume of 5 ml/Kg. During the experiment, blood was drawn via the tail vein for compound concentration analysis. At the end of each assay, the length and weight of the muscle was recorded, and measured force normalized to the mass of the muscle (N/g).
Compound A increased force generation throughout the curve to generate a total of 55% more work over the 300 second period, while maintaining a similar profile to that of the vehicle.
The same protocol was repeated with a second skeletal muscle troponin activator, 1-((1R)-1-methylpropyl)-6-chloro-7-pyrazolylimidazo[4,5-b]pyridin-2-ol (Compound B). Compound B and analogous skeletal muscle troponin activators are disclosed in U.S. Pat. No. 7,989,469. […] 0.7 radian displacement and stimulation frequency calculated to provide 50% of maximum isokinetic tension. Compound B maintained force generation throughout the curve, at almost 50% of vehicle stimulation frequency, to generate the same total work over the 300 second period, while maintaining a similar profile to that of the vehicle.

[2] = system: extensor digitorum longus (EDL) muscles; test: In situ EDL force-frequency in sham and LAD-HF rats; assay type: in vivo, rat; details: 3 mg/kg IV, sham and LAD-HF groups
Procedure: An in situ assessment of selected animals from Example 12 was run at the end of the study to assess functional characteristics of extensor digitorum longus (EDL) muscles in Sham and LAD animals. Effects with and without Compound C (3 mg/kg IV) were assessed.
Rats were placed under anesthesia and the skin around the experimental leg was removed. The distal end of the extensor digitorum longus (EDL) muscle and its associated tendon were then isolated. The rat was then placed on the platform of an Aurora in situ muscle analysis rig wherein the knee was immobilized and the distal tendon cut and tied to the arm of a force transducer. The muscle was stimulated directly via steel needle electrodes contacting the peroneal nerve. Muscle contractile properties were assessed by applying an electrical current to the nerve and recording the force generated by the muscle via a servomotor. The muscle length was adjusted to produce the maximum isometric force (Lo) after sub-maximal stimulation (30 Hz, 1 ms pulses, 350 ms train duration). Once Lo had been established, the nerve was stimulated every 2 minutes with a 30 Hz train (1 ms stimuli, 350 ms duration) for the course of the experiment.
Once the preparation was stable, a force frequency relationship was assessed, then Compound C (3 mg/kg IV) or vehicle was injected and a second force frequency was assessed. […]

[3] = system: sham and LAD-HF diaphragm fibers; test: Skinned diaphragm fiber Ca2+ sensitivity; parameters: species or system rat; details: 3 μM
Procedure: (§1) Muscle tissue for in vitro skinned fiber studies were prepared using an adapted protocol based on Lynch and Faulkner (Am J Physiol 275:C1548-54 (1998)). Briefly, rat muscle from sham and HF animals were rapidly dissected, rinsed in physiological saline, and then incubated in skinning solution (125 mM K-propionate, 20 mM imidazole, 5 mM EGTA, 2 mM MgCl2, 2 mM ATP, pH 7.0) supplemented with 0.5% TritonX-100 (Sigma Chemicals, St. Louis, Mo.) for 30 minutes at 4° C. The buffer was then changed to a storage solution (125 mM K-propionate, 20 mM imidazole, 5 mM EGTA, 2 mM MgCl2, 2 mM ATP, glycerol 50%, pH 7.0) and stored at −20° C. for later use.
(§2) For skinned fiber analysis, single muscle fibers were dissected from larger segments of tissue in rigor buffer at 4° C. ([…], pH 7.0). They were then suspended between a 400 A force transducer (Aurora Scientific, Ontario, Canada) and a fixed post and secured with 2-4 μl of a 5% solution of methylcellulose in acetone. […] Tension was generated in each fiber by changing fiber buffer over to relax buffer supplemented with 1 mM EGTA and a 15 mM solution of calcium chloride and calculated using the web resource (www.stanford.edu/˜cpatton/webmaxc/webmaxcS.htm). […]

sham and HF EDL fibers = test: Skinned EDL fiber force-Ca2+ relationship; parameters: species or system rat; details: 3 μM, sham and HF EDL muscle
Procedure: as §1, §2

[4] = system: sham and LAD-HF diaphragm strips; test: Diaphragm force-frequency by electrical field stimulation in organ bath; parameters: species or system rat; details: 30 μM, sham and LAD-HF diaphragms, submaximal frequencies of electrical stimulation
Procedure: Diaphragm contractile force was measured by electrical field stimulation in an organ bath system based on a standard operating protocol adapted from the Treat NMD website (http://www.treat-nmd.eu/downloads/file/sops/dmd/MDX/DMD M.1.2.002.pdf). The diaphragm and the last floating rib from sham and HF animals were excised, rinsed in physiological saline, and placed in a temperature controlled water-jacketed chamber (26-27° C.) containing Krebs-Henseleit Buffer (118 mM NaCl, 10 mM glucose, 4.6 mM KCl, 1.2 mM KH2PO4, 1.2 mM MgSO4*7 H2O, 24.8 mM NaHCO3, 2.5 mM CaCl2, 50 mg/L tubocurarine, 50 U/L insulin, pH:7.4) that was continuously aerated with 95% O2/[…]. After 10 minutes of equilibration, vertical strips spanning the floating rib to the central tendon were cut from diaphragms. Braided silk sutures were tied at the central tendon and floating rib and attached to a force transducer between two platinum electrodes. Diaphragm strips were set to a length that produced maximum twitch tension (Lo). The force-frequency profile of the muscle was obtained by stimulating the muscle at frequencies between 10-150 Hz (Grass Stimulator, 800 ms train duration, 0.6 ms pulse width). Compound C was suspended in DMSO and directly added into the bath.

[5] = Plasma levels at end of rotarod experiment; assay type: in vivo, rat; details: end of experiment (not at Cmax)
Procedure: The effect of the fast skeletal muscle troponin activator 1-(2-(((trans)-3-fluoro-1-(3-fluoropyridin-2-yl)cyclobutyl)methylamino)pyrimidin-5-yl)-1H-pyrrole-3-carboxamide (Compound C) on muscle fatigue in healthy rats was determined by a rotarod running time test. […] On the day of the assessment, the animals began by running at an increasing speed from 14-16 RPM over 5 minutes. Rats were then run at a constantly accelerating rate from 12 RPM to 25 RPM over the course of 10 minutes. Time to fall was recorded, with the test being terminated at 600 seconds. The plasma levels were determined at the end of the experiments (not at Cmax). The plasma levels for the indicated doses were determined to be the following: […]

LAD-HF rats = test: Fatiguing rotarod in rat heart failure model; assay type: in vivo
From the text: To determine the effect of Compound C on skeletal muscle function in patients with heart failure, a rat heart failure model was used. Female Sprague Dawley rats (<250 g) were obtained from Charles River Laboratories having the left anterior descending coronary artery ligated prior to shipping (LAD-HF rats). Sham operated controls were also obtained from the same surgical preparation (sham controls). All rats underwent assessment of cardiac function after a three day acclimation to provide baseline levels. Animals were assessed on weeks 4, 7 and 10 to observe the progress of exercise intolerance at least 3 days after echocardiography. Exercise performance was assessed using the fatiguing rotarod protocol described in Example 11 (5 minute run ramping from 14-16 RPM, followed by run time assessment during a 10 minute ramp from 12 to 25 RPM). LAD-HF rats were selected based on a left ventricular fractional shortening <25% and reduced run time compared to sham controls. […] Decreases in fractional shortening (determined by echocardiography) were apparent.
Animals were assigned in a cross-over fashion whereby half of the animals received Compound C (10 mg/kg PO) and half received vehicle (19.3%PEG: 80% (15%) captisol, pH3, 0.2% tween, 0.5% HPMC) via oral gavage 30 minutes prior to rotarod assessment on Day 1 and then the opposite treatment on Day 2.

mouse EDL muscle = details: cited from earlier work
healthy rats = test: Rotarod running assay; assay type: in vivo, rat; details: control treatments by oral gavage: 300 mg/kg (60 min), caffeine 10 mg/kg (30 min), phosphoserine 1000 mg/kg (24 hours prior)
Procedure: Female Sprague Dawley rats (210-260 g) were obtained from Charles River Laboratories and acclimated in the test facility for a minimum of six days prior to the start of the study. All rats were trained the day prior to compound administration. Training consisted of placing the rats on the rotating drum (rod), starting at a low constant speed (10 RPM). The rats were acclimated to walk on the drum for 5 minutes before resting. A second training session of an increasing speed from 14-16 RPM was initiated after all rats in the experimental group had finished the first training session. […] On the day of the experiment animals were dosed thirty minutes prior to start of test. The test began with a 5 minute primer session, whereby animals were run at an increasing speed from 14-16 RPM over 5 minutes. Rats were then run at a constantly accelerating rate from 12 RPM to 25 RPM over the course of 10 minutes. […] Time to fall was recorded, with the test being terminated at 900 seconds. Compound A was administered via oral gavage 30 minutes prior to assessment. Each dose was formulated as a suspension containing 0.2% Tween 80, 0.5% HPMC and water. Dose volume was 5 mL/kg. Vehicle (0.2% Tween 80, 0.5% HPMC and water) was administered similarly. Control treatments were chosen based on association with amelioration of central fatigue (caffeine, Davis 2003), muscular fatigue (creatine, Boyadjiev, 2007) and dual central/muscular fatigue (phosphoserine, […] 1976).

1-((1R)-1-methylpropyl)-6-chloro-7-pyrazolylimidazo[4,5-b]pyridin-2-ol [Compound B]
isokinetic force frequency relationship ([1]; at 3.1 radians/s): increased in the submaximal range in a dose dependent manner
force-velocity relationship ([1]; at 30 Hz): increased across all velocities in a dose and velocity dependent manner
power output ([1]; corresponding to force velocities at 30 Hz): dose-dependent increase
isometric force frequency relationship ([1]; in situ): increased in the submaximal range in a dose dependent manner
stimulation frequency to generate the same total work ([1]; isokinetic fatigue protocol at 50% of maximum isokinetic tension, 300 second period): ~50 % of vehicle stimulation frequency
more total work over the 300 second period ([1]; isokinetic fatigue protocol, 1 flexion per second at 3.1 radians/s, 30 Hz, vs vehicle): 105%

NC(=O)c1ccn(-c2cnc(NCC3(c4ncccc4F)CC(F)C3)nc2)c1 (stereo not drawn) [Compound C, 1-(2-(((trans)-3-fluoro-1-(3-fluoropyridin-2-yl)cyclobutyl)methylamino)pyrimidin-5-yl)-1H-pyrrole-3-carboxamide]
response to low frequency stimulation [2]: increased response to low frequency stimulation in both groups
Ca2+ sensitivity [3]: significantly increased Ca^2+ sensitivity
force-Ca2+ relationship (sham and HF EDL fibers): leftward shift in the force-Ca^2+ relationship
diaphragm force [4]: significantly increased force
[Plasma] ([5]; 0.01 mg/kg): 0.003 µM
[Plasma] ([5]; 0.03 mg/kg): 0.007 µM
[Plasma] ([5]; 0.1 mg/kg): 0.024 µM
[Plasma] ([5]; 0.3 mg/kg): 0.083 µM
[Plasma] ([5]; 1 mg/kg): 0.204 µM
[Plasma] ([5]; 3 mg/kg): 0.478 µM
[Plasma] ([5]; 10 mg/kg): 1.95 µM
[Plasma] ([5]; 30 mg/kg): 3.64 µM
[Plasma] ([5]; 100 mg/kg): 28.0 µM
increase of rotarod running time compared to vehicle treatment (LAD-HF rats; 10 mg/kg PO): approximately 2.5 fold
rotarod running time (mean±S.E.) (LAD-HF rats; 10 mg/kg PO 30 minutes prior, vehicle 111±32): 277 ± 32 s

Cn1c(=O)c2c(ncn2C)n(C)c1=O [caffeine, reference compound]
tetanic tension and muscle fatigue (mouse EDL muscle; repeated 60 Hz stimulation over 6 minutes): increased initial tetanic EDL tension but accelerated and accentuated muscle fatigue
running time vs vehicle (healthy rats): no significant difference

CN(CC(=O)O)C(=N)N [creatine, reference compound]
running time vs vehicle (healthy rats): no significant difference

O=C1CN(/N=C/c2ccc(-c3ccc([N+](=O)[O-])cc3)o2)C(O)=N1 [dantrolene]
tetanic tension and fatigue development (mouse EDL muscle; 20 μM): decreased early tetanic tension yet abolished overall fatigue development

N[C@@H](COP(=O)(O)O)C(=O)O [phosphoserne, phosphoserine, reference compound]
running time vs vehicle (healthy rats): no significant difference
